Read-outs that look alike come from different tables or passages of the source.
What was measured:
[1] = biological target: FLT3 (ITD) (Homo sapiens, UniProt P36888); test: KINOMEscan Kd (DiscoverX); type: binding; conditions: comparison of Kd
Procedure: (§1) Dissociation constants (Kd) and inhibition levels of FLT3 mutants were measured at DiscoverX using the KINOMEscan^TM Profiling Service (KdELECT).

[2] = biological target: FLT3 (ITD) (Homo sapiens, UniProt P36888, ITD); test: KINOMEscan Kd (DiscoverX); type: binding
FLT3 (ITD) (Homo sapiens, UniProt P36888, ITD), sequence (P36888 564-993, change not shown): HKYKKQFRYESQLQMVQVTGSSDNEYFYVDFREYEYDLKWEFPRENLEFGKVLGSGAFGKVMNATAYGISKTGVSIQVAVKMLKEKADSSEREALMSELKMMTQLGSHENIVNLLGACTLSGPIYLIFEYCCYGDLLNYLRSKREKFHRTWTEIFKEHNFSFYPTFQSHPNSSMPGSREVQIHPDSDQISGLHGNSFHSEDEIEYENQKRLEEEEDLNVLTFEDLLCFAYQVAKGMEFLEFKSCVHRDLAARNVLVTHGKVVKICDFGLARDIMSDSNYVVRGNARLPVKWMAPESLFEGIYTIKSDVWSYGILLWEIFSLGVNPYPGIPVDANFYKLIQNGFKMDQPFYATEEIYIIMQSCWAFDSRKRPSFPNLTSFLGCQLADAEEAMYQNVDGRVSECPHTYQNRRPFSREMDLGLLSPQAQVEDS
Procedure: as §1

[3] = system: S6 phosphorylation (Ser235/236) in MV-4-11 cells; test: S6 phosphorylation, flow cytometry; type: cell-based; conditions: Homo sapiens, MV4-11; MV-4-11, 4 hours
Procedure: For biomarker experiments, MV-4-11, MOLM-13 and KG-1 cells were seeded at 1 × 10^6 in 3 ml of medium, while MOLM-16 cells were seeded at 1 × 10^6 in 4 ml of medium and left for ~ 18 hours (37°C, 5% CO2). […] Final concertation of DMSO was 0.1%. After 4h of incubation cells were harvested, centrifuged and washed with ice-cold PBS. Cells were fixed with 4% paraformaldehyde buffered with PBS and permeabilized with 90% methanol. Cells were incubated with primary antibody (S6 phopspho-Ser235/236, Cell Signaling, Cat. No: 4856) diluted 1:200 in 0.5% BSA/PBS. […] Cells were analyzed on Flow Cytometer BD LSR II with an excitation wavelength of 488 nm and peak emission 590 nm.

[4] = Pharmacokinetics after oral and intravenous administration; type: in vivo, mice (CD-1); conditions: female, CD-1, plasma, Mouse, Dose PO/IV 50/15 mg/kg
Procedure: (§2) therapeutic potential in acute myeloid leukemia
(§3) sheet for further calculations.
(§4) Three male Beagle dogs were administered

[5] = as above; type: in vivo, rats (Sprague Dawley); conditions: male, plasma, Rat, Dose PO/IV 25/1 mg/kg
Procedure: as §2, §3, §4

[6] = Metabolic stability, liver microsomes; type: in vitro ADME; conditions: Dog, 37 °C, read-out: Liver microsomes t1/2 (converted)
[7] = biological target: CYP1A2 (Homo sapiens, UniProt P05177); test: CYP isoforms inhibition; type: in vitro ADME; conditions: 5-dose, 3-fold dilution starting at 30 µM; in-house
CYP1A2, sequence (P05177 whole entry, canonical isoform): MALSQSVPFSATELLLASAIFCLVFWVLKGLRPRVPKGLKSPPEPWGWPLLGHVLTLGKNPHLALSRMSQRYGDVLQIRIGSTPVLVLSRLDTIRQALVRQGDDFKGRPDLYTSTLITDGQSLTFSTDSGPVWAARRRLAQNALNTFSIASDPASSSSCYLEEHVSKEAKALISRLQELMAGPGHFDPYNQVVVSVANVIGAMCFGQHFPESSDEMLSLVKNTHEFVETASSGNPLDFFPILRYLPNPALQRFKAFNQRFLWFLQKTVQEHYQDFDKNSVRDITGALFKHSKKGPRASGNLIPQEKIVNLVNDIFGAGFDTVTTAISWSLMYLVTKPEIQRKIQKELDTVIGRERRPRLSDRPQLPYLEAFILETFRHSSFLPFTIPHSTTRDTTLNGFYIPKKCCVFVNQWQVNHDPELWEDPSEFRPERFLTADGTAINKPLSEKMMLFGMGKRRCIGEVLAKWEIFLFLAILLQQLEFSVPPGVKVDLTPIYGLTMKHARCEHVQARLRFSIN
Procedure: (§5) or absence of enzyme cofactors. The assay was performed microsomes. (Supplementary Table 7).
(§6) with the respective reference samples (i.e. without measured at Cambridge Bioscience Limited (except
(§7) cofactors). After incubation, drug transformation by liver CYP1A2 inhibition which was measured in-house). The
(§8) enzymes was terminated by adding cold acetonitrile.
(§9) loss of compound was determined by LC-MS analysis. serial dilution starting at 30 μM. The control compound
(§10) The analysis of two standard compounds (i.e. positive a very weak potential for CYP inhibition with IC50
(§11) and negative controls) was included. […]

[8] = biological target: T1, CYP2B6 (Homo sapiens, UniProt P20813); test: CYP isoforms inhibition; type: in vitro ADME; conditions: 5-dose, 3-fold dilution starting at 30 µM
T1 construct: Cambridge Bioscience Limited (ran the assay)
T1 sequence (P20813 whole entry, canonical isoform): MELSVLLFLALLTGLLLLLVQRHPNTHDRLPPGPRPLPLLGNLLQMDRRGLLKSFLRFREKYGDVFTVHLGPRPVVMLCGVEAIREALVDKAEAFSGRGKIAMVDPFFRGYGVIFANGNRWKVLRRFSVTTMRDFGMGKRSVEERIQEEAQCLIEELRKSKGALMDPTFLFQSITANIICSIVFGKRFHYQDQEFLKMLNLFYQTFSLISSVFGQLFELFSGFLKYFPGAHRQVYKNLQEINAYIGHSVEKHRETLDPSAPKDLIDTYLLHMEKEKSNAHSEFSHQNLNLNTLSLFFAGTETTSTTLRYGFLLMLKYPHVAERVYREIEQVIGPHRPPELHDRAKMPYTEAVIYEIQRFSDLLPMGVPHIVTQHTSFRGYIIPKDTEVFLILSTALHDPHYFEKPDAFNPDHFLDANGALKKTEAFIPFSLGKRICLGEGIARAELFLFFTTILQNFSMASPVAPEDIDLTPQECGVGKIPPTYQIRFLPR
Procedure: as §5, §6, §7, §8, §9, §10, §11

[9] = biological target: T2, CYP2C8 (Homo sapiens, UniProt P10632); test: CYP isoforms inhibition; type: in vitro ADME; conditions: 5-dose, 3-fold dilution starting at 30 µM
T2 construct: Cambridge Bioscience Limited (ran the assay)
T2 sequence (P10632 whole entry, canonical isoform): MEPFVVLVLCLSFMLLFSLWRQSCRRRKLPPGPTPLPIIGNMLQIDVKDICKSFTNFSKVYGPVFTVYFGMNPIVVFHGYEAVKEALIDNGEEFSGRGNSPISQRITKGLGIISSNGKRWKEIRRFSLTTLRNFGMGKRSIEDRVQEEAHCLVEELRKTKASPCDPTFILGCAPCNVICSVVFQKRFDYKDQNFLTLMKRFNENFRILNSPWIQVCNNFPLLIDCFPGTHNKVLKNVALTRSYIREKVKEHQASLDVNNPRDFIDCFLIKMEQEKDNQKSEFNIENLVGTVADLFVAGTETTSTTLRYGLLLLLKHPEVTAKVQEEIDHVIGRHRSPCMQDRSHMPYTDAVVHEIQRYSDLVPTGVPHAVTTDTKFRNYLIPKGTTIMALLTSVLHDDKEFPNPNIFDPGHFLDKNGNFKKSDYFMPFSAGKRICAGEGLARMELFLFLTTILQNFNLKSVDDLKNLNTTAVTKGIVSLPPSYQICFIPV
Procedure: as §5, §6, §7, §8, §9, §10, §11

[10] = biological target: T3, CYP2C19 (Homo sapiens, UniProt P33261); test: CYP isoforms inhibition; type: in vitro ADME; conditions: 5-dose, 3-fold dilution starting at 30 µM
T3 construct: Cambridge Bioscience Limited (ran the assay)
T3 sequence (P33261 whole entry, canonical isoform): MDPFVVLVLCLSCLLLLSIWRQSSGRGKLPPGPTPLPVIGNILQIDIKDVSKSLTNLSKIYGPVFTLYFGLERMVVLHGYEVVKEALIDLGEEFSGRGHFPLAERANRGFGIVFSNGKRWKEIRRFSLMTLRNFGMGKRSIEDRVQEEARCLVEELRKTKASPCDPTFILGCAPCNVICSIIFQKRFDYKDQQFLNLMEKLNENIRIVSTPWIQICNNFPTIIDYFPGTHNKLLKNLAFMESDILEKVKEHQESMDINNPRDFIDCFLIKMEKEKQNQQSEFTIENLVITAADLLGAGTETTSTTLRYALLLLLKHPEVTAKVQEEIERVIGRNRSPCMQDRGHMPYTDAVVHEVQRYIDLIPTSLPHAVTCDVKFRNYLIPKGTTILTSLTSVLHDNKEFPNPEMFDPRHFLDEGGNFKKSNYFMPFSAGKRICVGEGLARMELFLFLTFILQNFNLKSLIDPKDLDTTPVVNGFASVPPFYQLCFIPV
Procedure: as §5, §6
(§12) cofactors). After incubation, drug transformation by liver CYP1A2 inhibition which was measured in-house). […]
(§13) The control compound
as §10, §11

[11] = biological target: T4, CYP2D6 (Homo sapiens, UniProt P10635); test: CYP isoforms inhibition; type: in vitro ADME; conditions: 5-dose, 3-fold dilution starting at 30 µM
T4 construct: Cambridge Bioscience Limited (ran the assay)
T4 sequence (P10635 whole entry, canonical isoform): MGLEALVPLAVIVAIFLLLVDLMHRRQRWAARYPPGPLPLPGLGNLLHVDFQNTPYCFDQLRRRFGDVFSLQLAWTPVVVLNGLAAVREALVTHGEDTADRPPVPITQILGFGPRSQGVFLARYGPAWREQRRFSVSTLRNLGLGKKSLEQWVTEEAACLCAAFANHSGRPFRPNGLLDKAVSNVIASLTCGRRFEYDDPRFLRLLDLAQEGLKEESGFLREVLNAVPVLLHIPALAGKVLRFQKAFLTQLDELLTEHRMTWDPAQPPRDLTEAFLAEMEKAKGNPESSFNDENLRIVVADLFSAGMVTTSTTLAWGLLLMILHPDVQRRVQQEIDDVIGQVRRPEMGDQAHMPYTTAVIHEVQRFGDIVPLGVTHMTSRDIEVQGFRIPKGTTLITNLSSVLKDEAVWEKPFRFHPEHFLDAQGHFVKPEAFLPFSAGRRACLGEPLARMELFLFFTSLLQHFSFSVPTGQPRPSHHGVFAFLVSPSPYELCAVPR
Procedure: as §5, §6, §12, §13, §10, §11

[12] = biological target: T5, CYP3A4 (Homo sapiens, UniProt P08684); test: CYP isoforms inhibition; type: in vitro ADME; conditions: 5-dose, 3-fold dilution starting at 30 µM
T5 construct: Cambridge Bioscience Limited (ran the assay)
T5 sequence (P08684 whole entry, canonical isoform): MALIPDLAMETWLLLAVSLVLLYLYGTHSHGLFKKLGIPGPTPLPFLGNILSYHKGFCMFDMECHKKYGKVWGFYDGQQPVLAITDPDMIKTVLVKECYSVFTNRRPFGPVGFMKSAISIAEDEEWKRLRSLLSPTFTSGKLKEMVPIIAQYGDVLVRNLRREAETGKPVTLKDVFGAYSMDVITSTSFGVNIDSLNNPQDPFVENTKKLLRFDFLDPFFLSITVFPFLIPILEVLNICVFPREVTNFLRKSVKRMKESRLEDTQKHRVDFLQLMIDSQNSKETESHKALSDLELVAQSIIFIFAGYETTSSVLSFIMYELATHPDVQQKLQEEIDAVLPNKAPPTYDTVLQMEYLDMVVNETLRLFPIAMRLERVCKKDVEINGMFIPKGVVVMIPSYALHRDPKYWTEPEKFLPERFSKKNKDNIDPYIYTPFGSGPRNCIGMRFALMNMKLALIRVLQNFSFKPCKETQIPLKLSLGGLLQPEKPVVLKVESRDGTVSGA
Procedure: as §5, §6, §12, §13, §10, §11

[13] = system: MOLM-16 (FLT3-WT) tumor; test: MOLM-16 subcutaneous xenograft, single agent; type: in vivo, SCID/beige mice
Description: All animals were handled in strict accordance with good animal practice as defined by the relevant national and local animal welfare bodies. SCID and SCID/beige C.B-17 mice were provided by Harlan Laboratories or Charles River Laboratories, and were maintained in pathogen free conditions. For the xenograft experiments, age-matched (9-11 weeks old) females were used. 5×10^6 of MV-4-11 or MOLM-16 cells were suspended in a mixture (1:1, v:v) of PBS with Matrigel (BD Biosciences,) and injected subcutaneously (sc), in a total volume of 100 μL, above the groin on the right hind limb. For MOLM-13 and KG-1 cells, a mixture (3:1, v:v) of PBS and Matrigel HC (BD Bioscience,) was used to inject 5 × 10^6 of cell per mouse subcutaneously (sc), in a total volume of 100 μL. When tumors reached 100-130 mm^3, mice were randomized into uniform groups (6-9 mice per group) and subsequently administered the compound. […] At the end of the experiment, mice were anesthetized with isofluran and blood samples for total cell counts and biochemistry were obtained by retro-orbital bleeding. […] 5×10^6 cells suspended in a mixture (3:1, v:v) of PBS and Matrigel were injected as described above. When the tumor volume reached ~120 mm^3, mice were randomized into uniform groups (5 mice per group) and the compound then administered. […] Tumor volume was monitored every second day and calculated using the formula: TV = (a^2×b)/2, where “a” is the short axis in millimeters, and “b” is the long axis in millimeters. Body weight was assessed every day.

[14] = system: MV-4-11; test: Drug interactions (combination index), MTS; type: cell-based; conditions: MV-4-11, broad range of concentrations
Procedure: and AC220 in AML cell lines was assessed using an MTS assay. Cells viability was measured after 72 h incubation with three-fold serial dilutions of compounds, starting at 10 µM concentration. Obtained data were presented as percentage of viable cells compared with control (untreated) cells viability. Error bars indicate SD.
11 cells. Combination index (CI) are shown on the Y axis and compound concentrations are shown on X and Z axes. Values […] and below 0.7- a synergy between tested compounds. Values above 1 indicate an antagonistic effect.
(1 picture or pasted object on this page, not shown here)

[15] = system: KG-1; test: MTS viability assay, 72 h; conditions: Homo sapiens, KG-1, 72 h
Procedure: (§14) 15-25 ×10^3 of MV-4-11, MOLM-13, MOLM-14, MOLM-16, KG-1, Eol-1, SKM-1, PL-21, GDM-1, SKNO-1, RS4;11, Kasumi-3 and Kasumi-6 cells were seeded in 150 μL of culture medium onto individual wells in a 96 well plates, in triplicates. On the same day, 50 μL of medium containing tested inhibitor was added to the wells. Each compound was tested at 8 concentrations, in triplicates. As a negative control, the medium containing 0.1% DMSO was used. […] Staurosporine was used at 10 μM as a positive control. One the day of drug addition, basal signal from untreated cells was measured from in triplicate to determine time zero (T0). […] GI50 and LC50 values were extrapolated from a variable (four-parameter) dose-response curve fitted in GraphPad Prism.

[16] = system: KASUMI-3; test: MTS viability assay, 72 h; conditions: Kasumi-3, 72 h
Procedure: as §14

FLT3 (ITD) (Homo sapiens, UniProt P36888), sequence (P36888 564-993, stated change not applied): as the sequence (P36888 564-993, change not shown) above

Compound: CC(C)n1c(C2CCNCC2)nc2c([N+](=O)[O-])c(Br)c(Br)cc21 [SEL24-B489, 5,6-dibromo-4-nitro-2-(piperidin-4-yl)-1-(propan-2-yl)-1H-1,3-benzodiazole]
- stronger inhibitor binding to FLT3-ITD than to FLT3-WT [1]: 10 fold
- Kd [2]: 16 nM
- IC50 [3]: 13 nM
- Cmax ([4]; 50 mg/kg): 2180 ng/mL
- Tmax ([4]; 50 mg/kg): 4 h
- bioavailability ([4]; 50 mg/kg, read-out: F (bioavailability)): 62%
- AUC(0-t) [4]: 26200 ng·h/mL
- half-life [4]: 5.2 h
- Cmax ([5]; Sprague Dawley, 25 mg/kg): 913 ng/mL
- Tmax ([5]; Sprague Dawley, 25 mg/kg): 6.7 h
- AUC(0-t) ([5]; Sprague Dawley): 19600 ng·h/mL
- half-life ([5]; Sprague Dawley): 10 h
- bioavailability ([5]; Sprague-Dawley, 25 mg/kg, read-out: F (bioavailability)): 52%
- half-life at 1 µM [6]: 7.6 h
- IC50 [7]: > 30000 nM
- IC50 [8]: > 40000 nM
- IC50 [9]: > 30000 nM
- IC50 [10]: > 70000 nM
- IC50 [11]: 10000 nM
- IC50 [12]: > 100000 nM
- TGI ([13]; MOLM-16, 25 mg/kg BID): ~ 100%
- TGI ([13]; MOLM-16, 50 mg/kg EOD): 79%
- TGI ([13]; MOLM-16, 50 mg/kg QD): ~ 100%
- pharmacological interaction with AraC [14]: marked synergy
- pharmacological interaction with vosaroxin [14]: marked synergy
- GI50 [15]: 67 nM
- CC50 ([15]; read-out: LC50): 2440 nM
- GI50 [16]: 633 nM
- CC50 ([16]; read-out: LC50): 2330 nM

Reference: PMC5908295 (Oncotarget, 2018)
